In paper PMC3851587 (Molecular and biochemical parasitology, 2013) one finds Km data, which are given here for one compound.

The subject of one assay is Chimera N1A. Nature of the assay: [3H]-adenosine uptake in transfected L. donovani cells. The format is cell-based, Crithidia fasciculata. The settings on record: labelled compound.
A further assay concerns Chimera N3A. The assay is described as above. The format is cell-based, Crithidia fasciculata. Particulars: labelled compound.

On to `Nc1ncnc2c1ncn2[C@@H]1O[C@H](CO)[C@@H](O)[C@H]1O` [adenosine], for which the Michaelis constant (Km) in the assay with Chimera N1A is 500 ± 140 nM; with Chimera N3A it was 1200 ± 160 nM.
